From ChEMBL document CHEMBL3259558, “Identification of amides derived from 1H-pyrazolo[3,4-b]pyridine-5-carboxylic acid as potent inhibitors of human nicotinamide phosphoribosyltransferase (NAMPT)” (Bioorg Med Chem Lett, 2013)
In brackets after ≈: the same amount, converted by molar mass. Activity calls are given as the source filed them. The calls are words filed in the database; no cut-off is given here.

Columns and labels:
[1] = Half life in NCR nude mouse at 5 mg/kg, iv; format: ADME, organism-based; parameters: dose 5 mg/kg, route intravenous; settings: in vivo
[2] = Drug uptake in Sprague-Dawley rat retina at 30 mg/kg, po single dose measured 6.5 hrs after dose
[3] = Cytotoxicity against African green monkey COS7 cells assessed as cell viability after 96 hrs by CyQuant staining-based assay; settings: Chlorocebus aethiops, COS-7, 96 h
[4] = Apparent permeability from apical to basolateral side in MDCK cells at 10 uM by LC-MS/MS analysis; format: ADME, cell-based, Canis lupus familiaris; settings: dog
PC-3 [5] = test: Cellular uptake in human PC3 cells at 200 nM; format: ADME, cell-based; settings: pc-3, 0.2 µM
[6] = Inhibition of C-terminal His-6-tagged cynomolgus monkey NAMPT expressed in Escherichia coli (DE3)-RIL cells after 30 mins by mass spectrometry-based analysis; parameters: species or system Macaca fascicularis
[7] = Drug uptake in Sprague-Dawley rat retina at 30 mg/kg, po single dose measured 1 hr after dose
[8] = target: T1, Nicotinamide phosphoribosyltransferase (Mus musculus, UniProt Q99KQ4); test: Inhibition of NAMPT in mouse cells assessed as reduction in NAD level after 48 hrs by mass spectrometry; format: cell-based
T1 sequence (Q99KQ4 whole entry): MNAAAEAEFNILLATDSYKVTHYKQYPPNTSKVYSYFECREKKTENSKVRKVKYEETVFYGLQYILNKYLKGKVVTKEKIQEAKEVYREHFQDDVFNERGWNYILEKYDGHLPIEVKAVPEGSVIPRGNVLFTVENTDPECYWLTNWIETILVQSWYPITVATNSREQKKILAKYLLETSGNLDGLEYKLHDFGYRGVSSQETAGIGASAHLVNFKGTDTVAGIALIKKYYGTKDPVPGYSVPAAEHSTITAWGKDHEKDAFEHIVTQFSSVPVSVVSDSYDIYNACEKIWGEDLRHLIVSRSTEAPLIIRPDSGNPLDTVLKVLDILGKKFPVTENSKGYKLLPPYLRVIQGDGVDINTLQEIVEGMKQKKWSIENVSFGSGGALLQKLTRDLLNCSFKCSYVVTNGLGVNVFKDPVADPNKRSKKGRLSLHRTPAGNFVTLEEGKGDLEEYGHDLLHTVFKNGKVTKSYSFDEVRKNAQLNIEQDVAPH

[9] = Antiproliferative activity against mouse B16F10 cells assessed as cell viability after 96 hrs by CyQuant staining-based assay; format: functional; settings: B16-F10, 96 h
[10] = Antiproliferative activity against dog DH82 cells assessed as cell viability after 96 hrs by CyQuant staining-based assay; format: functional; settings: Canis lupus familiaris, DH82, 96 h
[11] = Dissociation constant, pKa of the compound; format: physicochemical
[12] = Antiproliferative activity against human HT1080 cells assessed as cell viability after 96 hrs by CyQuant staining-based assay; format: functional; settings: HT-1080, 96 h
[13] = Tmax in NCR nude mouse at 100 mg/kg, po; format: ADME, organism-based; parameters: dose 100 mg/kg, route oral; settings: in vivo
[14] = Fraction unbound in mouse plasma at 5 uM by LC-MS/MS analysis; format: ADME, cell-free
Mus musculus = test: Toxicity in NCR nude mouse xenografted with human A2780 cells assessed as decrease in body weight at 100 mg/kg, po qd measured after 5 days; format: organism-based; parameters: dose 100 mg/kg, route oral; settings: in vivo, 120 h
A2780 [15] = test: Antiproliferative activity against human A2780 cells assessed as cell viability after 72 hrs by SRB assay; format: functional, cell-based; settings: A2780, 72 h
[16] = Ratio of drug level in retina to plasma of Sprague-Dawley rat at 30 mg/kg, po qd for 2 days measured 1 hr after last dose
[17] = Inhibition of C-terminal His-6-tagged dog NAMPT expressed in Escherichia coli (DE3)-RIL cells after 30 mins by mass spectrometry-based analysis; parameters: species or system Canis lupus familiaris
[18] = Ratio of drug level in retina to plasma of Sprague-Dawley rat at 30 mg/kg, po qd for 2 days measured 6.5 hrs after last dose
[19] = Cellular uptake in mouse KPP cells at 1000 nM; format: ADME, cell-based; settings: 1 µM
[20] = Antiproliferative activity against mouse KPP cells assessed as cell viability after 96 hrs by CyQuant staining-based assay; format: functional
[21] = Antiproliferative activity against human Calu6 cells assessed as cell viability after 96 hrs by CyQuant staining-based assay; format: functional; settings: Calu-6, 96 h
[22] = Half life in NCR nude mouse at 100 mg/kg, po; format: ADME, organism-based; parameters: dose 100 mg/kg, route oral; settings: in vivo
[23] = Clearance in NCR nude mouse at 5 mg/kg, iv; format: ADME, organism-based; parameters: dose 5 mg/kg, route intravenous; settings: in vivo
[24] = target: T1, Nicotinamide phosphoribosyltransferase; test: Inhibition of mouse NAMPT after 30 mins by mass spectrometry-based analysis
A2780 [25] = test: Antitumor activity against human A2780 cells xenografted in NCR nude mouse assessed as tumor regression at 100 mg/kg, po qd measured for 5 to 15 days; format: functional, organism-based; parameters: dose 100 mg/kg
[26] = Antiproliferative activity against dog D17 cells assessed as cell viability after 96 hrs by CyQuant staining-based assay; format: functional; settings: Canis lupus familiaris, D17, 96 h
Tumour = test: Reduction of NAD level in tumor of NCR nude mouse xenografted with human A2780 cells at 100 mg/kg, po qd measured after day-5 dose for 1 to 24 hrs relative to vehicle-treated control; format: functional, organism-based; parameters: dose 100 mg/kg
[27] = Antiproliferative activity against human MIAPaCa2 cells assessed as cell viability after 96 hrs by CyQuant staining-based assay; format: functional; settings: MIA PaCa-2, 96 h
PC-3 [28] = test: Cellular uptake in human PC3 cells at 1000 nM; format: ADME, cell-based; settings: pc-3, 1 µM
[29] = Aqueous solubility of the compound in PBS at pH 7.2 by LC/CLND analysis; format: physicochemical
[30] = Cellular uptake in mouse KPP cells at 200 nM; format: ADME, cell-based; settings: 0.2 µM
[31] = Cytotoxicity against African green monkey COS1 cells assessed as cell viability after 96 hrs by CyQuant staining-based assay; settings: Chlorocebus aethiops, COS-1, 96 h
[32] = Volume of distribution at steady state in NCR nude mouse at 5 mg/kg, iv; format: ADME, organism-based; parameters: dose 5 mg/kg, route intravenous; settings: in vivo, read-out: Vdss
A2780 [33] = test: Antiproliferative activity against human A2780 cells assessed as cell viability after 72 hrs by SRB assay in presence of nitotinamide mononucleotide; format: functional, cell-based
PC-3 [34] = test: Antiproliferative activity against human PC3 cells assessed as cell viability after 96 hrs by CyQuant staining-based assay; format: functional; settings: PC-3, 96 h
[35] = Cytotoxicity against rhesus monkey RF/6A cells assessed as cell viability after 96 hrs by CyQuant staining-based assay; settings: Macaca mulatta
[36] = Cmax in NCR nude mouse at 100 mg/kg, po; format: ADME, organism-based; parameters: dose 100 mg/kg, route oral; settings: in vivo
[37] = Antiproliferative activity against mouse KPR cells assessed as cell viability after 96 hrs by CyQuant staining-based assay; format: functional
HCT-116 = test: Antiproliferative activity against human HCT116 cells assessed as cell viability after 96 hrs by CyQuant staining-based assay; format: functional; settings: HCT-116, 96 h
[38] = target: Nicotinamide phosphoribosyltransferase (Rattus norvegicus, UniProt Q80Z29); test: Inhibition of rat NAMPT after 30 mins by mass spectrometry-based analysis
Nicotinamide phosphoribosyltransferase (Rattus norvegicus, UniProt Q80Z29), sequence (Q80Z29 whole entry): as the sequence (Q99KQ4 whole entry) above, with T335S, N439T, I484M counted along it

[39] = Antiproliferative activity against dog A72 cells assessed as cell viability after 96 hrs by CyQuant staining-based assay; format: functional; settings: Canis lupus familiaris, A-72, 96 h
[40] = Octanol-PBS buffer distribution coefficient, log D of the compound at pH 7.4 by shake flask method; format: physicochemical

Work on `O=C(NCc1ccc(S(=O)(=O)c2cccc(C(F)(F)F)c2)cc1)c1cnc2[nH]ncc2c1` yielded a half-life [1] of 2.6 h, a concentration at 6.5 h [2] of 680 nM and an IC50 [3] of 863 nM. For the same molecule, the Papp A→B at 10 µM [4] was 11 ×10⁻⁶ cm/s, the Drug uptake (PC-3 [5]) was 10 nM and the IC50 [6] was 73 nM. The concentration at 1 h [7] was 940 nM, the EC50 [8] was 70 nM and the IC50 [9] was greater than 1000 nM. For the same molecule, the IC50 [10] was 41 nM, the pKa [11] was less than 2 and the IC50 [12] was 9 nM. For the same molecule, the Tmax [13] was 0.25 h, the fraction unbound at 5 µM [14] was 0.013 and the Activity (Mus musculus) was “Toxic”. The IC50 (A2780 [15]) was 4.3 nM, the Kp at 1 h [16] was 0.071 and the IC50 [17] was 22 nM. It also gave a Kp at 6.5 h [18] of 0.093, a Drug uptake [19] of 74 nM and an IC50 [20] of 775 nM. For the same molecule, the IC50 [21] was 21 nM, the half-life [22] was 3.4 h and the clearance [23] was 3.3 mL/min/kg. The IC50 [24] was 59 nM, the Activity (A2780 [25]) was “Active” and the IC50 [26] was 98 nM. The Activity (Tumour) was “Active”, the IC50 [27] was 30 nM and the Drug uptake (PC-3 [28]) was 54 nM. It also gave a solubility [29] of 1.4 µM (≈ 0.645 µg/mL), a Drug uptake [30] of 12 nM and an IC50 [31] of 501 nM. For the same molecule, the Vd [32] was 0.45 L/kg, the inhibition (A2780 [33]) was “inactive” and the IC50 (PC-3 [34]) was 9 nM. It also gave an IC50 [35] of 386 nM, a Cmax [36] of 53000 nM and an IC50 [37] greater than 1000 nM. It also gave an IC50 (HCT-116) of 8 nM, an IC50 [38] of 35 nM and an IC50 [39] of 23 nM. The logD [40] was 3.4.
